Consider nine molecules from patent US7045515B2, “β-lactam compounds process for reproducing the same and serum cholesterol-lowering agents containing the same” (Kotobuki Pharmaceutical Co., Ltd., priority 2001, dated 2006).

Series [1] deals with α-N-acetyl-D-galactosaminidase. In words: Biological stability test against glycosidase (remaining substrate by NMR). Format: in vitro ADME. Conditions: for remaining substrate: α-N-acetyl galactosaminidase 0.32 unit, citric acid buffer pD=3, 35° C. The method, then:
[Biological Stability Test]
To evaluate the stability of C-glycoside, the biological stability of C-allyl derivative (A) and O-allyl derivative (B) against to α-N-acetyl-D-galactosaminidase as glycosidase ware compared according to Mark von Itzstein's method (Org. Lett., 1999, 1, 443–446).
[drawing 118] • enzyme; α-N-acetyl galactosaminidase 0.32 unit (1.69 unit/mL 0.1% BSA containing 0.5M sodium citrate buffer) • solvent; citric acid buffer (pD=3) 0.6 mL • temperature; 35° C. • procedure; Substrate (2 mg) was dissolved in citric acid buffer (0.6 mL) and α-N-acetyl galactosaminidase (0.32 unit) was added. NMR spectrum was determined in every constant time and the content of the remaining substrates were determined.

Series [2] deals with hypercholesterolemic hamster. In words: Hypocholesterolemic activity in hamsters fed a 0.5%-cholesterol diet. The series is classed as in vivo. Conditions: Mesocricetus auratus, po, negative = hypocholesterolemic action, read-out: Serum cholesterol (%); for change in vivo at 3 mg/kg: 3 mg/kg orally daily; for change in vivo at 0.3 mg/kg: 0.3 mg/kg orally daily. Here is the method: [Hypocholesterolemic Agents Using the Hypercholesterolemic Hamster]
Hamsters were derived into groups with 3 animals per group and fed a 0.5%-cholesterol containing CE-2 diet (CLEA Japan Inc.) for 4 or 7 days. The normal dietary group were fed a standard CE-2 during the experiment. Each compound or vehicle (0.2 mL of corn oil) per 100 g body weight was orally administered daily for 4 or 7 days from the day that high-cholesterol diet was started. At 20 hr after the final administration, blood samples were collected from the abdominal aorta of non-fasted animals under anesthesia with diethylether. Serum cholesterol was measured by enzymatic method using cholesterol E-test wako (Wako Pure Chemical Industries). Activity of the test compounds is expressed as percent reduction of the test compound on the basis of comparison with rised total cholesterol treated only with no-treatment-high-cholesterol diet. The test compounds with the optical rotation value in the compounds 1–58 were evaluated as the chiral compounds.

The mark [3] stands for this setting: 168 h, dosage day 7, changed percent vs rise in total cholesterol on high-cholesterol diet.
The mark [4] stands for this setting: 96 h, dosage day 4, changed percent.

Like-named read-outs stand apart in the source and are kept apart here.

Consider `C=CC[C@H]1O[C@H](CO)[C@H](O)[C@H](O)[C@H]1NC(C)=O` [A], for which the “effect of enzyme on substrate (degradation)” value in series [1] (after 24 h) was “unaffected by enzyme”. Further, the remaining substrate in series [1] (time 2), in series [1] (time 4), in series [1] (time 6), in series [1] (time 8), in series [1] (time 10) and in series [1] (time 12) was 100 in each case. Moreover, the remaining substrate in series [1] (time 18) and in series [1] (time 24) was 100 each time.
Consider `Cc1ccc(N2C(=O)[C@H](CC[C@H](O)c3ccc(F)cc3)[C@H]2c2ccc(C[C@@H]3O[C@H](CO)[C@@H](O)[C@H](O)[C@H]3O)cc2)cc1` [Compound 24, (4S,3R)-3-[(3S)-3-(4-Fluorophenyl)-3-hydroxypropyl]-4-(4-{[(2S,5S,3R,4R,6R)-3,4,5-trihydroxy-6-(hydroxymethyl)perhydro-2H-pyran-2-yl]methyl}phenyl)-1-(4-methylphenyl)azetidine-2-one], for which the melting point was 102 to 104 °C. Also, the change in vivo at 3 mg/kg in series [2] (setting [3]) is -156%.
In the same order, the values of `Cc1ccc(N2C(=O)[C@H](CCC(=O)c3ccc(F)cc3)[C@H]2c2ccc(C[C@@H]3O[C@H](CO)[C@@H](O)[C@H](O)[C@H]3O)cc2)cc1` [Compound 28, (4S,3R)-4-(4-{[(2S,5S,3R,4R,6R)-3,4,5-Trihydroxy-6-(hydroxymethyl)perhydro-2H-pyran-2-yl]methyl}phenyl)-1-(4-methylphenyl)-3-[3-(4-fluorophenyl)-3-oxopropyl]azetidine-2-one] are 86 to 88 °C and -130%.
In turn, `O=C(O)[C@H]1O[C@@H](Cc2ccc([C@@H]3[C@@H](CC[C@H](O)c4ccc(F)cc4)C(=O)N3c3ccc(F)cc3)cc2)[C@H](O)[C@@H](O)[C@@H]1O` [Compound 33] came in with a melting point of 82 to 84 °C. The change in vivo at 3 mg/kg in series [2] (setting [4]) was -67%.
For `O=C1[C@H](CC[C@H](O)c2ccc(F)cc2)[C@@H](c2ccc(F)cc2)N1c1ccc(C[C@@H]2O[C@H](CO)[C@@H](O)[C@H](O)[C@H]2O)cc1` [Compound 38, (4S,3R)-3-[(3S)-3-(4-Fluorophenyl)-3-hydroxypropyl]-1-(4-{[(2S,5S,3R,4R,6R)-3,4,5-trihydroxy-6-(hydroxymethyl)perhydro-2H-pyran-2-yl]methyl}phenyl)-1-(4-fluorophenyl)azetidine-2-one], the melting point was in the range of 200 to 201 °C. Moreover, the change in vivo at 10 mg/kg in series [2] (96 h, 10 mg/kg orally daily, dosage day 4, changed percent) is -2%.
Turning to `O=C1[C@H](CC[C@H](O)c2ccc(F)cc2)[C@@H](c2ccc(/C=C/[C@@H]3O[C@H](CO)[C@@H](O)[C@H](O)[C@H]3O)cc2)N1c1ccc(F)cc1` [Compound 45, (4S,3R)-3-[(3S)-3-(4-Fluorophenyl)-3-hydroxypropyl]4-(4-{[(2S,5S,3R,4R,6R)-3,4,5-trihydroxy-6-(hydroxymethyl)perhydro-2H-pyran-2-yl]ethene}phenyl)-1-(4-fluorophenyl)azetidine-2-one], the melting point lay in the range of 84 to 86 °C. Moreover, the change in vivo at 3 mg/kg in series [2] (setting [4]) was -136%.
In the same order, the values of `O=C1[C@H](CC[C@H](O)c2ccc(F)cc2)[C@@H](c2ccc(CC[C@@H]3O[C@H](CO)[C@@H](O)[C@H](O)[C@H]3O)cc2)N1c1ccc(F)cc1` [Compound 46, (4S,3R)-3-[(3S)-3-(4-Fluorophenyl)-3-hydroxypropyl]4-(4-([(2S,5S,3R,4R,6R)-3,4,5-trihydroxy-6-(hydroxymethyl)perhydro-2H-pyran-2-yl]ethyl}phenyl)-1-(4-fluorophenyl)azetidine-2-one] are 153 to 155 °C and -147%.
In the case of `O=C1[C@H](CC[C@H](O)c2ccc(F)cc2)[C@@H](c2ccc(CC[C@@H]3O[C@H](CO)[C@@H](O)[C@H](O)[C@H]3O)cc2)N1c1ccccc1` [Compound 56], the melting point was 82 to 84 °C. Also, the change in vivo at 0.3 mg/kg in series [2] (setting [4]) was -84%.
In the same order, the values of `Cc1ccc(N2C(=O)[C@H](CC[C@H](O)c3ccc(F)cc3)[C@H]2c2ccc(CC[C@@H]3O[C@H](CO)[C@@H](O)[C@H](O)[C@H]3O)cc2)cc1` [Compound 57] are 116 to 118 °C and -81.3%.
